Values of other authors as cited in patent US9782416B2, “Pharmaceutical formulations of potassium ATP channel openers and uses thereof” (Essentialis, Inc., priority 2004, dated 2017).

Experiments:
Kir6.2/SUR1 channel = Kir6.2/SUR1 channel (Rattus norvegicus, UniProt Q09429); settings: Dabrowski et al. 2002
KATP channel = target: T1, KATP channel (Homo sapiens, UniProt Q09428); settings: patients with hyperinsulinism and patients with pancreatic insulinoma
T1 construct: host or cells: patients with hyperinsulinism or pancreatic insulinoma (endogenous channel)
T1 sequence (Q09428 whole entry): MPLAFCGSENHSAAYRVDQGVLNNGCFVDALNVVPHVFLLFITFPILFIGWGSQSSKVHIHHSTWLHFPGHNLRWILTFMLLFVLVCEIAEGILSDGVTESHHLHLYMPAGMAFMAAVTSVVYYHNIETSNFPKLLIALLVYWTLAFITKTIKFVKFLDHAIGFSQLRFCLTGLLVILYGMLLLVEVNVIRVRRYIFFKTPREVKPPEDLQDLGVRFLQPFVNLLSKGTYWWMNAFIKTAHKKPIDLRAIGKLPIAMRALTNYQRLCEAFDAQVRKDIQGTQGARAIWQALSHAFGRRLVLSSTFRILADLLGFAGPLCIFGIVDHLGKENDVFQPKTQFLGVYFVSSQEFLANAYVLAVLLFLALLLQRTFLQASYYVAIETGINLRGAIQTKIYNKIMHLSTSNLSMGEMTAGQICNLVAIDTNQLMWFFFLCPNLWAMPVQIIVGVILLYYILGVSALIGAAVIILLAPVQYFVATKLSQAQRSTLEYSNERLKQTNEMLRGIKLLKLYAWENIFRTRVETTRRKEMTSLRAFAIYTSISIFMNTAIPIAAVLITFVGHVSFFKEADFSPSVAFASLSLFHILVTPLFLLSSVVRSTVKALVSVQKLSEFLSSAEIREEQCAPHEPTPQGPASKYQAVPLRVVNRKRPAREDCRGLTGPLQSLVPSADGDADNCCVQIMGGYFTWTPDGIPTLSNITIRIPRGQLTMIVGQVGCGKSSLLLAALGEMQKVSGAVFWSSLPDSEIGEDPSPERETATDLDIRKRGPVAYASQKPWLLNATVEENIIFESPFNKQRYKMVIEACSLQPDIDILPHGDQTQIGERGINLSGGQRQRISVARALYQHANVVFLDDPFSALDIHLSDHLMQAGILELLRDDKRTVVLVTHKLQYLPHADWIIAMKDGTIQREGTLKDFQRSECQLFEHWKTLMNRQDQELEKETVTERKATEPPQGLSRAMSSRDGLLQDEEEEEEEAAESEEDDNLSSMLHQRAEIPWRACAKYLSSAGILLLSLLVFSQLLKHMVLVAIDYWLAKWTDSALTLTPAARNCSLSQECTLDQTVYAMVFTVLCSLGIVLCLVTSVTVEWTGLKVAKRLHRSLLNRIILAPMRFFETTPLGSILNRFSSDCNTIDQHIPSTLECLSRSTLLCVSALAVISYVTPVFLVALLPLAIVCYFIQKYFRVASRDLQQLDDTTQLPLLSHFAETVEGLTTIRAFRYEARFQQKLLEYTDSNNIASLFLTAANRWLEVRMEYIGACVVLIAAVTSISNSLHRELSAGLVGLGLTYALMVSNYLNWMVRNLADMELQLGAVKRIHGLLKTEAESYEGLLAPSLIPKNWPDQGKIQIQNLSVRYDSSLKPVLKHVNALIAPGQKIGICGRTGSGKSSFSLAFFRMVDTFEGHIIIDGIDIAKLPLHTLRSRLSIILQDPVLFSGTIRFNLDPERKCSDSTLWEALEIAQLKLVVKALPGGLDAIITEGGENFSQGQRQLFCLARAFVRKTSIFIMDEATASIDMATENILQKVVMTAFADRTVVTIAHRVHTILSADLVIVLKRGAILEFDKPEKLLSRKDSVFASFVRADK
T1 sequence (Q14654 whole entry partner): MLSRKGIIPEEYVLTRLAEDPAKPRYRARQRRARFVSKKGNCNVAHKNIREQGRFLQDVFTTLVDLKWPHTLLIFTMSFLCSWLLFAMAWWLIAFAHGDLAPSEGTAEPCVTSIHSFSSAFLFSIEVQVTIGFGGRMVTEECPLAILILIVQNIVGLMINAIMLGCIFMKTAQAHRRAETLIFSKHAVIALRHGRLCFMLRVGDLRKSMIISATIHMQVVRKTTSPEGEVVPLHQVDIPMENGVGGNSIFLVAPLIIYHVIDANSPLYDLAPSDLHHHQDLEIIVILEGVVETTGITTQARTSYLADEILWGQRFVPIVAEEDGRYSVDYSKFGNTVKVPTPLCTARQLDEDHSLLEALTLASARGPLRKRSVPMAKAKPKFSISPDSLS

Chain of Kir6.2/SUR1 channel (Q09429 whole entry): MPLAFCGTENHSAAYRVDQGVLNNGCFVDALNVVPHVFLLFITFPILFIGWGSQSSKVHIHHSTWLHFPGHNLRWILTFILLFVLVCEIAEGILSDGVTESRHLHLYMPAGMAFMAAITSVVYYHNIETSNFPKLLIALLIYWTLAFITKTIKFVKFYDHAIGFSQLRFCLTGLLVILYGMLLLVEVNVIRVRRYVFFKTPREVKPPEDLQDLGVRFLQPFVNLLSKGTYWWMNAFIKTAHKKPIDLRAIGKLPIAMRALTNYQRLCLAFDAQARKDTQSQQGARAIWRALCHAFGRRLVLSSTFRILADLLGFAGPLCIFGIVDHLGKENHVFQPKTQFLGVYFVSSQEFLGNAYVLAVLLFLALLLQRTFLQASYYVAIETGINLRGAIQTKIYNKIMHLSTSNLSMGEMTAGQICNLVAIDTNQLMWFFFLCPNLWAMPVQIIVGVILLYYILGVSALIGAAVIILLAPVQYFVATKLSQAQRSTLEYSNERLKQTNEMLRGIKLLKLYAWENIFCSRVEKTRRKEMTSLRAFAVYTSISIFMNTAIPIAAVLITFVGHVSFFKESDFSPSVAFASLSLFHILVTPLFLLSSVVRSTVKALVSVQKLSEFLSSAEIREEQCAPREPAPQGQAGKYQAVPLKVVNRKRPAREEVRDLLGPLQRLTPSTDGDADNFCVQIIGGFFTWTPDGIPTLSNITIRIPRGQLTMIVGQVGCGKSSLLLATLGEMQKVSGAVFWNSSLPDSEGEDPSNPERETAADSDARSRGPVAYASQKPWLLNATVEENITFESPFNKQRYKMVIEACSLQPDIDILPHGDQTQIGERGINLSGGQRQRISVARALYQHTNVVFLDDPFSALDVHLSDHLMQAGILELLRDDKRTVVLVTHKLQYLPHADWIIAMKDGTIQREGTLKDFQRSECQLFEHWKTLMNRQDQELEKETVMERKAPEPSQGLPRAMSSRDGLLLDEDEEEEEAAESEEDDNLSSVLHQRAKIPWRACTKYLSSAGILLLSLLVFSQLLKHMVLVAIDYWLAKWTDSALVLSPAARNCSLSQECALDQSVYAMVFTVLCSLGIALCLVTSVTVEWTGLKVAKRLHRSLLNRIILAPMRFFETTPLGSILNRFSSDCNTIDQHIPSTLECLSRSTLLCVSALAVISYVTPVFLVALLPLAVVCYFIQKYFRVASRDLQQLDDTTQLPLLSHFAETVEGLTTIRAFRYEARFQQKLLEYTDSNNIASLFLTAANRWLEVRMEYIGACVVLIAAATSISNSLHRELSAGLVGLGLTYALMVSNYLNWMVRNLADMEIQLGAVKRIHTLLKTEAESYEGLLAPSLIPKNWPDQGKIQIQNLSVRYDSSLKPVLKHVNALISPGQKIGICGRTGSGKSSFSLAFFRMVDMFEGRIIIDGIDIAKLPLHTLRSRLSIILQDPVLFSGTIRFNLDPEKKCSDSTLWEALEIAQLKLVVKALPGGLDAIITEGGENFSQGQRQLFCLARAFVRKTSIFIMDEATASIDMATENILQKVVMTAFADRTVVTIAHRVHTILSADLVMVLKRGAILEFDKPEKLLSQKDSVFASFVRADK
Chain of Kir6.2/SUR1 channel (Q61743 whole entry partner): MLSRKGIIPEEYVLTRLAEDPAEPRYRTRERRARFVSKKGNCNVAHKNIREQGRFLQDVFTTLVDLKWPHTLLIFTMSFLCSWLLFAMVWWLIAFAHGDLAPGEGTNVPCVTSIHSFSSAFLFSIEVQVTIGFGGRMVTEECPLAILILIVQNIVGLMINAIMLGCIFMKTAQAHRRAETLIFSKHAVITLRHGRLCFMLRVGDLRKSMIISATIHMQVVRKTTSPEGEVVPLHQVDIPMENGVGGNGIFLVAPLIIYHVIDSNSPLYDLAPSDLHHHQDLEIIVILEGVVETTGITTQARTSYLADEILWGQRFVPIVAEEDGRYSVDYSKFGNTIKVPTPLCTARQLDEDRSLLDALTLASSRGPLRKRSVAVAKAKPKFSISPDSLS

Row | channel opener selectivity (Kir6.2/SUR1 channel) | KATP channel activator activity (KATP channel) | Structure (SMILES)
1 | selective Kir6.2/SUR1 channel opener |  | COc1ccc2c(c1)S(=O)(=O)N=C(NC(C)C)N2 [3-isopropylamino-7-methoxy-4H-1,2,4,-benzothiadiazine 1,1-dioxide]
2 |  | effective KATP channel activator | CC(C)N=C1Nc2cc(Cl)c(Cl)cc2S(=O)(=O)N1 [BPDZ 154]
